Experimental data from patent US20240018161A1, “MODULATORS OF CYSTIC FIBROSIS TRANSMEMBRANE CONDUCTANCE REGULATOR” (VERTEX PHARMACEUTICALS INCORPORATED, priority 2020, published 2024).
Where two headings read alike, the source gives them in different places.

Biological target: CFTR-mediated chloride transport in human intestinal epithelial enteroid cells (Homo sapiens, UniProt P13569)
Experiment: Membrane potential dye, Enteroid Assay A
Assay type: cell-based
Details: for EC50: read-out: Ent. A EC50
How it was run: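 Membrane potential dye (20 μM methyl oxonol, with 30 μM CaCCinh-A01 and 30 μM Chicago Sky Blue) loaded 25 min at room temperature into ROCK-inhibitor-seeded human enteroid cells. Chloride-free stimulation buffer triggered transport, followed by 15 min fluorescence. % Activity relative to 3 μM/3 μM/300 nM triple-combination control.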

[1] = enteroid cells incubated with test compound 18-24 hours, acute 10 μM forskolin and 300 nM N-[2,4-bis(1,1-dimethylethyl)-5-hydroxyphenyl]-1,4-dihydro-4-oxoquinoline-3-carboxamide
[2] = percentage of chloride transport of triple combination control (3 μM N-[(6-amino-2-pyridyl)sulfonyl]-6-(3-fluoro-5-isobutoxy-phenyl)-2-[(4S)-2,2,4-trimethylpyrrolidin-1-yl]pyridine-3-carboxamide based)

Sequence of CFTR-mediated chloride transport in human intestinal epithelial enteroid cells (P13569 with tags, fused parts or gaps DEL508-508): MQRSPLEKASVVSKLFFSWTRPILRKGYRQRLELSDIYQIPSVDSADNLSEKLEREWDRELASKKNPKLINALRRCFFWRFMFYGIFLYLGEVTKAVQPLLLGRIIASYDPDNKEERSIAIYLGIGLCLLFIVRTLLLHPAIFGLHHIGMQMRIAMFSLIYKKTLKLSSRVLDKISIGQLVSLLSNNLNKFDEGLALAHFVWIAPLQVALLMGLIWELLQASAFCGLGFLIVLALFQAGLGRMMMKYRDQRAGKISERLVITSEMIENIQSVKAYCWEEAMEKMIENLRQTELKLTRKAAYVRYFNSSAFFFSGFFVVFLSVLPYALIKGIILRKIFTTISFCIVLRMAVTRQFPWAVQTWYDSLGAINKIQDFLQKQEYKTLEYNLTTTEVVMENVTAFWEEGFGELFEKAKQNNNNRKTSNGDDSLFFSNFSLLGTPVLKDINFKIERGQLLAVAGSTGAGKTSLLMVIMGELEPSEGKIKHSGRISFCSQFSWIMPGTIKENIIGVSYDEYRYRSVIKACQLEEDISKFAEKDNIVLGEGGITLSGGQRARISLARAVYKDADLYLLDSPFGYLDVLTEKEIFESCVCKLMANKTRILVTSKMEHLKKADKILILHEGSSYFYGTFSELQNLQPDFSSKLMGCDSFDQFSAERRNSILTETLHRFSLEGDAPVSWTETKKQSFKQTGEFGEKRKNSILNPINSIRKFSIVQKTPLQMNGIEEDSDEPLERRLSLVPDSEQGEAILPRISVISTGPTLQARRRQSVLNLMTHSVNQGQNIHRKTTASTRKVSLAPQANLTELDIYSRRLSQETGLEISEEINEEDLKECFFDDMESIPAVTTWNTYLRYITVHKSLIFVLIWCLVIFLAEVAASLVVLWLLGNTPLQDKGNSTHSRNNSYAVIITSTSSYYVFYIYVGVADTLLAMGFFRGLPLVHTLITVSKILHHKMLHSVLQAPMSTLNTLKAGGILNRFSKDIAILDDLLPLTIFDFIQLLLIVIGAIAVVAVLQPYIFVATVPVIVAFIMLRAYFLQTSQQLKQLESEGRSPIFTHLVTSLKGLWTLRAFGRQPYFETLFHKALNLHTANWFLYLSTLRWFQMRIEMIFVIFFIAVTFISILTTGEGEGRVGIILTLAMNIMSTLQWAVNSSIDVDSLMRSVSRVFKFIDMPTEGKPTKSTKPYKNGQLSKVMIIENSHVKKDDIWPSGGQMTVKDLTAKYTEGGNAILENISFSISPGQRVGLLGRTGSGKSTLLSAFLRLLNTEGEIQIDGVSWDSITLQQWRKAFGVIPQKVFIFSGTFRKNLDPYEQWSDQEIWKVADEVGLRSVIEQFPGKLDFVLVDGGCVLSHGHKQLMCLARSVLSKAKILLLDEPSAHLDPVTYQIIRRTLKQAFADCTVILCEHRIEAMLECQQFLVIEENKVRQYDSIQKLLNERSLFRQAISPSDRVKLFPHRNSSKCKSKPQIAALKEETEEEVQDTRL

Row | SMILES | Ent. A Max Activity (%) (Enteroid Assay A) | EC50 (Enteroid Assay A) [µM] | EC50 [1] [µM] | Ent. A Max Activity (%) [2]
1 | Cc1cccc(C)c1-c1cc2nc(n1)NS(=O)(=O)c1cccc(c1)C(=O)N1CCNCC1C(Cc1ccccc1)O2 (stereo not drawn) [Compound 176, 9-benzyl-13-(2,6-dimethylphenyl)-10-oxa-17λ^6-thia-3,6,14,16,23-pentaazatetracyclo[16.3.1.111,15.03,8]tricosa-1(22),11,13,15(23),18,20-hexaene-2,17,17-trione] | + (+ is <30%) | 3 to 30 | – | –
2 | Cc1cccc(C)c1-c1cc2nc(n1)NS(=O)(=O)c1cccc(c1)C(=O)N1CCN(CCC(C)(C)C)C(CO2)C1 (stereo not drawn) [Compound 177, 18-(3,3-Dimethylbutyl)-12-(2,6-dimethylphenyl)-15-oxa-8λ^6-thia-1,9,11,18,22-pentaazatetracyclo[15.3.1.13,7.110,14]tricosa-3(23),4,6,10(22),11,13-hexaene-2,8,8-trione] | – | – | < 1 | ++ (++ is 30-60%)
3 | Cc1cccc(C)c1-c1cc2nc(n1)NS(=O)(=O)c1cccc(c1)C(=O)N1CCN(Cc3ccccc3)C(CO2)C1 (stereo not drawn) [Compound 178, 18-Benzyl-12-(2,6-dimethylphenyl)-15-oxa-8λ^6-thia-1,9,11,18,22-pentaazatetracyclo[15.3.1.13,7.110,14]tricosa-3,5,7(23),10(22),11,13-hexaene-2,8,8-trione] | – | – | < 1 | ++ (++ is 30-60%)
4 | Cc1cccc(C)c1-c1cc2nc(n1)NS(=O)(=O)c1cccc(c1)C(=O)N1Cc3cc(C(C)(C)C)ccc3C(C1)O2 (stereo not drawn) [Compound 182, 20-tert-Butyl-12-(2,6-dimethylphenyl)-15-oxa-8λ^6-thia-1,9,11,25-tetraazapentacyclo[14.7.1.13,7.110,14.017,22]hexacosa-3,5,7(26),10,12,14(25),17,19,21-nonaene-2,8,8-trione] | + (+ is <30%) | – | – | –
5 | Cc1cccc(C)c1-c1cc2nc(n1)NS(=O)(=O)c1cccc(c1)C(=O)N1CCCN(Cc3ccccc3)CC(C1)O2 (stereo not drawn) [Compound 205, 18-Benzyl-12-(2,6-dimethylphenyl)-15-oxa-8λ^6-thia-1,9,11,18,23-pentaazatetracyclo[14.5.1.13,7.110,14]tetracosa-3,5,7(24),10,12,14(23)-hexaene-2,8,8-trione] | ++ (++ is 30-60%) | < 1 | – | –
6 | Cc1cccc(C)c1-c1cc2nc(n1)NS(=O)(=O)c1cccc(c1)C(=O)N1CCCN(CCC(C)(C)C)CC(C1)O2 (stereo not drawn) [Compound 206, 18-(3,3-Dimethylbutyl)-12-(2,6-dimethylphenyl)-15-oxa-8λ^6-thia-1,9,11,18,23-pentaazatetracyclo[14.5.1.13,7.110,14]tetracosa-3,5,7(24),10,12,14(23)-hexaene-2,8,8-trione] | ++ (++ is 30-60%) | < 1 | – | –
7 | Cc1cccc(C)c1-c1cc2nc(n1)NS(=O)(=O)c1cccc(c1)CN1Cc3ccccc3C(C1)O2 (stereo not drawn) [Compound 208, 12-(2,6-Dimethylphenyl)-15-oxa-8λ^6-thia-1,9,11,25-tetraazapentacyclo[14.7.1.13,7.110,14.017,22]hexacosa-3(26),4,6,10,12,14(25),17(22),18,20-nonaene-8,8-dione] | – | – | < 1 | ++ (++ is 30-60%)
8 | Cc1cccc(C)c1-c1cc2nc(n1)NS(=O)(=O)c1cccc(c1)C(=O)N1CCOC[C@@H]1[C@@H](Cc1ccccc1)O2 [Compound 209, (8R)-9-Benzyl-13-(2,6-dimethylphenyl)-6,10-dioxa-17λ^6-thia-3,14,16,23-tetraazatetracyclo[16.3.1.111,15.03,8]tricosa-1(22),11,13,15(23),18,20-hexaene-2,17,17-trione] | – | – | < 1 | +++ (+++ is >60%)
9 | Cc1cccc(C)c1-c1cc2nc(n1)NS(=O)(=O)c1cccc(c1)C(=O)N1CC(CC3(CCCC3)C1)O2 (stereo not drawn) [Compound 229, 18′-(2,6-Dimethylphenyl)-2′-oxa-14′λ^6-thia-7′,15′,17′,20′-tetraazaspiro[cyclopentane-1,5′-tetracyclo[14.3.1.13,7.19,13]docosane]-1′(20′),9′,11′,13′(21′),16′,18′-hexaene-8′,14′,14′-trione] | – | – | < 1 | ++ (++ is 30-60%)
10 | Cc1cccc(C)c1-c1cc2nc(n1)NS(=N)(=O)c1cccc(c1)C(=O)N1CCN(C(=O)OC(C)(C)C)CC(C1)O2 (stereo not drawn) [Compound 240, tert-butyl 12-(2,6-dimethylphenyl)-8-imino-2,8-dioxo-15-oxa-8λ^6-thia-1,9,11,18,22-pentaazatetracyclo[14.4.1.13,7.110,14]tricosa-3,5,7(23),10,12,14(22)-hexaene-18-carboxylate] | ++ (++ is 30-60%) | 3 to 30 | – | –
11 | Cc1cccc(C)c1-c1cc2nc(n1)NS(=N)(=O)c1cccc(c1)C(=O)N1CCNCC(C1)O2 (stereo not drawn) [Compound 241, 12-(2,6-Dimethylphenyl)-8-imino-15-oxa-8λ^6-thia-1,9,11,18,22-pentaazatetracyclo[14.4.1.13,7.110,14]tricosa-3,5,7(23),10,12,14(22)-hexaene-2,8-dione] | + (+ is <30%) | – | – | –
12 | Cc1cccc(C)c1-c1cc2nc(n1)NS(=N)(=O)c1cccc(c1)C(=O)N1CCNCC(C1)O2 (stereo not drawn) [Compound 242, 12-(2,6-Dimethylphenyl)-8-imino-15-oxa-8λ^6-thia-1,9,11,18,22-pentaazatetracyclo[14.4.1.13,7.110,14]tricosa-3,5,7(23),10,12,14(22)-hexaene-2,8-dione] | + (+ is <30%) | – | – | –
13 | Cc1cccc(C)c1-c1cc2nc(n1)NS(=N)(=O)c1cccc(c1)C(=O)N1CCN(Cc3ccccc3)CC(C1)O2 (stereo not drawn) [Compound 246] | ++ (++ is 30-60%) | 1 to 3 | – | –
14 | Cc1cccc(C)c1-c1cc2nc(n1)NS(=N)(=O)c1cccc(c1)C(=O)N1CCN(CCC(C)(C)C)CC(C1)O2 (stereo not drawn) [Compound 247] | + (+ is <30%) | 1 to 3 | – | –
15 | COC(=O)C1CC2CN(C1)C(=O)Nc1cccc(c1)S(=O)(=O)Nc1nc(cc(-c3c(C)cccc3C)n1)O2 (stereo not drawn) [Compound 252] | – | – | 1 to 3 | ++ (++ is 30-60%)

Now from value to compound, other results behind:

Row | Ent. A Max Activity (%) (Enteroid Assay A) | EC50 (Enteroid Assay A) [µM] | EC50 [1] [µM] | SMILES | Ent. A Max Activity (%) [2]
16 | +++ (+++ is >600%) | < 1 | – | Cc1cccc(C)c1-c1cc2nc(n1)NS(=O)(=O)c1cccc(c1)C(=O)N1CCN(C(C)C)CC1C(Cc1ccccc1)O2 (stereo not drawn) [Compound 174, 9-benzyl-13-(2,6-dimethylphenyl)-6-(propan-2-yl)-10-oxa-17λ^6-thia-3,6,14,16,23-pentaazatetracyclo[16.3.1.111,15.03,8]tricosa-1(22),11,13,15(23),18,20-hexaene-2,17,17-trione] | –
17 | +++ (+++ is >600%) | < 1 | – | Cc1cccc(C)c1-c1cc2nc(n1)NS(=O)(=O)c1cccc(c1)C(=O)N1Cc3cc(C(C)(C)C)ccc3[C@H](O2)[C@H]1CC(C)C [Compound 184, (16S,24R)-20-tert-Butyl-12-(2,6-dimethylphenyl)-24-(2-methylpropyl)-15-oxa-8λ^6-thia-1,9,11,25-tetraazapentacyclo[14.7.1.13,7.110,14.017,22]hexacosa-3,5,7(26),10,12,14(25),17,19,21-nonaene-2,8,8-trione] | –
18 | +++ (+++ is >600%) | < 1 | – | Cc1cccc(C)c1-c1cc2nc(n1)NS(=O)(=O)c1cccc(c1)C(=O)N1Cc3cc(C(C)(C)C)ccc3[C@@H](O2)[C@H]1CC(C)C [Compound 185, (16R,24R)-20-tert-butyl-12-(2,6-dimethylphenyl)-24-(2-methylpropyl)-15-oxa-8λ^6-thia-1,9,11,25-tetraazapentacyclo[14.7.1.13,7.110,14.017,22]hexacosa-3,5,7(26),10,12,14(25),17,19,21-nonaene-2,8,8-trione] | –
19 | – | – | < 1 | Cc1cccc(C)c1-c1cc2nc(n1)NS(=O)(=O)c1cc(n(C)c1)C(=O)N1Cc3ccccc3C(C1)O2 (stereo not drawn) [Compound 207, 11-(2,6-Dimethylphenyl)-4-methyl-14-oxa-7λ^6-thia-1,4,8,10,24-pentaazapentacyclo[13.7.1.13,6.19,13.016,21]pentacosa-3(25),5,9(24),10,12,16(21),17,19-octaene-2,7,7-trione] | ++ (++ is 30-60%)
20 | – | – | < 1 | Cc1cccc(C)c1-c1cc2nc(n1)NS(=O)(=O)c1cccc(c1)C(=O)N1Cc3ccccc3C[C@@H]1CO2 [Compound 211, (12R)-17-(2,6-Dimethylphenyl)-14-oxa-21λ^6-thia-3,18,20,27-tetraazapentacyclo[20.3.1.115,19.03,12.05,10]heptacosa-1(26),5(10),6,8,15(27),16,18,22,24-nonaene-2,21,21-trione] | +++ (+++ is >60%)
21 | – | – | < 1 | Cc1cccc(C)c1-c1cc2nc(n1)NS(=O)(=O)c1cccc(c1)C(=O)N1Cc3ccccc3C[C@H]1CO2 [Compound 212, (12S)-17-(2,6-Dimethylphenyl)-14-oxa-21λ^6-thia-3,18,20,27-tetraazapentacyclo[20.3.1.115,19.03,12.05,10]heptacosa-1(26),5(10),6,8,15(27),16,18,22,24-nonaene-2,21,21-trione] | ++ (++ is 30-60%)
22 | – | – | < 1 | Cc1cccc(C)c1-c1cc2nc(n1)NS(=O)(=O)c1cccc(c1)C(=O)N1CCc3ccccc3C(C1)O2 (stereo not drawn) [Compound 220, 12-(2,6-Dimethylphenyl)-15-oxa-8λ^6-thia-1,9,11,26-tetraazapentacyclo[14.8.1.13,7.110,14.017,22]heptacosa-3(27),4,6,10(26),11,13,17,19,21-nonaene-2,8,8-trione] | +++ (+++ is >60%)
23 | ++ (++ is 30-60%) | < 1 | – | Cc1cccc(C)c1-c1cc2nc(n1)NS(=O)(=O)N1CCc3ccc(cc31)C(=O)N1Cc3ccccc3[C@@H](O2)[C@H]1CC(C)C [Compound 249] | –
24 | ++ (++ is 30-60%) | 1 to 3 | – | Cc1cccc(C)c1-c1cc2nc(n1)NS(=O)(=O)N1CCc3ccc(cc31)C(=O)N1Cc3ccccc3[C@@H](O2)[C@H]1CC(C)C [Compound 250] | –
